Results taken from patent publication US20260285850A1, “SUBSTITUTED OXAZOLIDINONES AND IMIDAZOLINONES AS HERBICIDES” (FMC CORPORATION, priority 2023, published 2026).

How the values were obtained:
Assay type in all cases: in vivo
[1] = system: barnyardgrass (Echinochloa crus-galli); assay: Test A preemergence soil spray, visual injury rating 0-100; settings: 10 days
Outline: (§1)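 Seeds sown in loam-sand blend got a preemergence directed soil spray, or emerged plants (2-10 cm, one- to two-leaf) got a postemergence spray, of compound in non-phytotoxic solvent with surfactant. After 10 days in greenhouse, injury rated visually versus untreated controls on a 0 (no effect) to 100 (complete control) scale.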

[2] = system: blackgrass (Alopecurus myosuroides); assay: as above; settings: 10 days
Outline: as §1

corn (Zea mays) [3] = assay: as above; settings: 10 days
Outline: as §1

[4] = system: green foxtail (Setaria viridis); assay: as above; settings: 10 days
Outline: as §1

kochia (Bassia scoparia) [5] = assay: as above; settings: 10 days
Outline: as §1

[6] = system: oat, wild (wild oat, Avena fatua); assay: as above; settings: 10 days
Outline: as §1

[7] = system: palmer (palmer amaranth, palmer pigweed, Amaranthus palmeri); assay: as above; settings: 10 days
Outline: as §1

[8] = system: ragweed (common ragweed, Ambrosia artemisiifolia); assay: as above; settings: 10 days
Outline: as §1

[9] = system: ryegrass, Italian (italian ryegrass, Lolium multiflorum); assay: as above; settings: 10 days
Outline: as §1

soybean (Glycine max) [10] = assay: as above; settings: 10 days
Outline: as §1

[11] = system: wheat (Triticum aestivum); assay: as above; settings: 10 days
Outline: as §1

[12] = system: barnyardgrass (Echinochloa crus-galli); assay: Test A postemergence application, visual injury rating 0-100
Outline: as §1

[13] = system: blackgrass (Alopecurus myosuroides); assay: as above
Outline: as §1

corn (Zea mays) [14] = assay: as above
Outline: as §1

[15] = system: galium (catchweed bedstraw, Galium aparine); assay: as above
Outline: as §1

[16] = system: green foxtail (Setaria viridis); assay: as above
Outline: as §1

[17] = system: horseweed (Erigeron canadensis); assay: as above
Outline: as §1

kochia (Bassia scoparia) [18] = assay: as above
Outline: as §1

[19] = system: oat, wild (wild oat, Avena fatua); assay: as above
Outline: as §1

[20] = system: palmer (palmer amaranth, palmer pigweed, Amaranthus palmeri); assay: as above
Outline: as §1

[21] = system: ragweed (common ragweed, Ambrosia artemisiifolia); assay: as above
Outline: as §1

[22] = system: ryegrass, Italian (italian ryegrass, Lolium multiflorum); assay: as above
Outline: as §1

soybean (Glycine max) [23] = assay: as above
Outline: as §1

[24] = system: wheat (Triticum aestivum); assay: as above
Outline: as §1

[25] = system: barnyardgrass (Echinochloa crusgalli); assay: Test B flooded paddy test, visual plant response rating 0-100; settings: 250 g ai/ha, Flood, applied to paddy water, evaluated after 13 days
Outline: (§2)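 Visual evaluation after 13 days. Water-applied treatment, 3 cm flood depth held constant, plants at 2-leaf stage at treatment.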

[26] = system: ducksalad (Heteranthera limosa); assay: as above; settings: 250 g ai/ha, Flood, applied to paddy water, evaluated after 13 days
Outline: as §2

rice (Oryza sativa) = assay: as above; settings: 250 g ai/ha, Flood, applied to paddy water, evaluated after 13 days
Outline: as §2

[27] = system: sedge, umbrella (small-flower umbrella sedge, Cyperus difformis); assay: as above; settings: 250 g ai/ha, Flood, applied to paddy water, evaluated after 13 days
Outline: as §2

[28] = 62 g ai/ha, 0 = no effect, 100 = complete control
[29] = 62 g ai/ha, postemergence, 10 days, 0 = no effect, 100 = complete control
[30] = Postemergence, 16 g ai/ha, greenhouse 10 days, 0 no effect, 100 complete control

`CC1(C(=O)NC2C=CC(C(=O)O)C2)CN(c2cc(F)cc(F)c2)C(=O)O1` (stereo not shown) [Compound 138] was tested, and the “Barnyardgrass plant response rating” value ([1]; 16 g ai/ha, 0 to 100 scale) was 60, the “Barnyardgrass plant response rating (0-100)” value [1, 28] was 100 and the “Blackgrass plant response rating” value ([2]; 16 g ai/ha, 0 to 100 scale) was 40. The “Blackgrass plant response rating (0-100)” value [2, 28] was 70, the “Corn plant response rating” value (corn (Zea mays) [3]; 16 g ai/ha, 0 to 100 scale) was 60 and the “Corn plant response rating (0-100)” value (corn (Zea mays) [3]; [28]) was 90. The “Foxtail, Green plant response rating” value ([4]; 16 g ai/ha, 0 to 100 scale) was 20, the “Foxtail, Green plant response rating (0-100)” value [4, 28] was 90 and the “Kochia plant response rating” value (kochia (Bassia scoparia) [5]; 16 g ai/ha, 0 to 100 scale) was 90. For the same compound, the “Kochia plant response rating (0-100)” value (kochia (Bassia scoparia) [5]; [28]) was 90, the “Oat, Wild plant response rating” value ([6]; 16 g ai/ha, 0 to 100 scale) was 50 and the “Oat, Wild plant response rating (0-100)” value [6, 28] was 90. The “Pigweed, Palmer plant response rating” value ([7]; 16 g ai/ha, 0 to 100 scale) was 30, the “Pigweed, Palmer plant response rating (0-100)” value [7, 28] was 90 and the “Ragweed plant response rating” value ([8]; 16 g ai/ha, 0 to 100 scale) was 0. For the same compound, the “Ragweed plant response rating (0-100)” value [8, 28] was 40, the “Ryegrass, Italian plant response rating” value ([9]; 16 g ai/ha, 0 to 100 scale) was 70 and the “Ryegrass, Italian plant response rating (0-100)” value [9, 28] was 90. The “Soybean plant response rating” value (soybean (Glycine max) [10]; 16 g ai/ha, 0 to 100 scale) was 30, the “Soybean plant response rating (0-100)” value (soybean (Glycine max) [10]; [28]) was 80 and the “Wheat plant response rating” value ([11]; 16 g ai/ha, 0 to 100 scale) was 50. The “Wheat plant response rating (0-100)” value [11, 28] was 90, the “Barnyardgrass plant response rating (0-100)” value [12, 29] was 80 and the “Barnyardgrass plant response rating (0 to 100 scale)” value [12, 30] was 70. The “Blackgrass plant response rating (0-100)” value [13, 29] was 90, the “Blackgrass plant response rating (0 to 100 scale)” value [13, 30] was 70 and the “Corn plant response rating (0-100)” value (corn (Zea mays) [14]; [29]) was 100. The “Corn plant response rating (0 to 100 scale)” value (corn (Zea mays) [14]; [30]) was 100, the “Galium plant response rating (0-100)” value [15, 29] was 90 and the “Galium plant response rating (0 to 100 scale)” value [15, 30] was 90. The “Foxtail, Green plant response rating (0-100)” value [16, 29] was 90, the “Foxtail, Green plant response rating (0 to 100 scale)” value [16, 30] was 80 and the “Horseweed plant response rating (0-100)” value [17, 29] was 80. The “Horseweed plant response rating (0 to 100 scale)” value [17, 30] was 50, the “Kochia plant response rating (0-100)” value (kochia (Bassia scoparia) [18]; [29]) was 80 and the “Kochia plant response rating (0 to 100 scale)” value (kochia (Bassia scoparia) [18]; [30]) was 80. For the same compound, the “Oat, Wild plant response rating (0-100)” value [19, 29] was 90, the “Oat, Wild plant response rating (0 to 100 scale)” value [19, 30] was 90 and the “Pigweed, Palmer plant response rating (0-100)” value [20, 29] was 90. The “Pigweed, Palmer plant response rating (0 to 100 scale)” value [20, 30] was 90, the “Ragweed plant response rating (0-100)” value [21, 29] was 80 and the “Ragweed plant response rating (0 to 100 scale)” value [21, 30] was 60. The “Ryegrass, Italian plant response rating (0-100)” value [22, 29] was 90, the “Ryegrass, Italian plant response rating (0 to 100 scale)” value [22, 30] was 60 and the “Soybean plant response rating (0-100)” value (soybean (Glycine max) [23]; [29]) was 60. The “Soybean plant response rating (0 to 100 scale)” value (soybean (Glycine max) [23]; [30]) was 60, the “Wheat plant response rating (0-100)” value [24, 29] was 90 and the “Wheat plant response rating (0 to 100 scale)” value [24, 30] was 90. For the same compound, the “Plant response rating, Barnyardgrass (0 to 100 scale, 0 is no effect and 100 is complete control)” value [25] was 95, the “Plant response rating, Ducksalad (0 to 100 scale, 0 is no effect and 100 is complete control)” value [26] was 100 and the “Plant response rating, Rice (0 to 100 scale, 0 is no effect and 100 is complete control)” value (rice (Oryza sativa)) was 95. The “Plant response rating, Sedge, Umbrella (0 to 100 scale, 0 is no effect and 100 is complete control)” value [27] was 95.
